Test results as given in publication PMC6433232, “Targeting mitochondria in cancer therapy could provide a basis for the selective anti-cancer activity” (PLoS ONE, 2019).
Like-named read-outs stand apart in the source and are kept apart here.

Experiments:
[1] = tested on: primary acute myeloid leukemia (AML) cells obtained from patients; experiment: Kinase inhibitor library screening with and without NSC130362, primary AML cells; format: cell-based, Human
[2] = tested on: human primary hepatocytes; experiment: cells; settings: Hepatocyte, read-out: EC50, μM Hepatocytes
From the text: We selected hepatocytes as normal cells because hepatocytes are mediate toxicity to multiple drugs and are used as a standard to assess toxicity of drugs in vitro [28]. […] For comparison with the standard of care, doxorubicin was also included in this analysis.

[3] = tested on: pancreatic cancer MIA PaCa-2 cells; experiment: cells; settings: for EC50: Homo sapiens, MIA PaCa-2, read-out: EC50, μM MIA PaCa-2
Method: Fig 1 A, Structure of NSC130362. B, Dose response curve of NSC130362 in MIA PaCa-2 cells. Cells were pre-incubated with NSC130362 for 2 h followed by addition of ATO (5 μM) and incubation for an additional 24 h. At the end of the treatment, the ratio of dead cells was determined by a CellTiterGlo reagent.

[4] = ratio of EC50 for inhibitor to EC50 for inhibitor/NSC130362 combination, NSC130362 10 μM, Screen N 2
[5] = ratio of EC50 for inhibitor to EC50 for inhibitor/NSC130362 combination, NSC130362 10 μM, Screen N 1
[6] = ratio of EC50 for inhibitor to EC50 for inhibitor/NSC130362 combination, NSC130362 10 μM, Screen N 3

Molecule	EC50 decrease, fold (Screen N 2) [1, 4]	EC50 decrease, fold (Screen N 1) [1, 5]	EC50 decrease, fold (Screen N 3) [1, 6]	EC50 [2]	EC50 [3]	other results
CO[C@H]1C[C@@H]2CC[C@@H](C)[C@@](O)(O2)C(=O)C(=O)N2CCCC[C@H]2C(=O)O[C@H]([C@H](C)C[C@@H]2CC[C@@H](O)[C@H](OC)C2)CC(=O)[C@H](C)/C=C(\C)[C@@H](O)[C@@H](OC)C(=O)[C@H](C)C[C@H](C)/C=C/C=C/C=C/1C [Rapamycin]	1.0 fold					
CNC(=O)c1cc(Oc2ccc(NC(=O)Nc3ccc(Cl)c(C(F)(F)F)c3)c(F)c2)ccn1 [Regorafenib (BAY 73-4506)]	1.2 fold	1.0 fold	0.0284 fold			
N#CC[C@H](C1CCCC1)n1cc(-c2ncnc3[nH]ccc23)cn1 [Ruxolitinib (INCB018424)]	1.0 fold					
NC(=O)c1ccc(-c2nc(-c3ccc4c(c3)OCO4)c(-c3ccccn3)[nH]2)cc1 [SB-431542]	1.0 fold	1.0 fold	1058.2 fold			
O=C(Nc1ccc2[nH]nc(-c3ccncc3)c2c1)[C@@H]1CCN(CC(=O)N2CCN(c3ccc(-c4ncccn4)cc3)CC2)C1 [SCH-772984]	0.8 fold					
Cn1cc(-c2ccc3nnc(Sc4ccc5ncccc5c4)n3n2)cn1 [SGX-523]	1.0 fold	1.6 fold	66.4 fold			
CC(C)(C)c1cnc(CSc2cnc(NC(=O)C3CCNCC3)s2)o1 [SNS-032 (BMS-387032)]	0.9 fold	6.0 fold	14.0 fold			
CCCCCNC(=O)N1CCC(CN(Cc2ccc(Cl)cc2)Cc2ccc([N+](=O)[O-])s2)C1 (stereo not shown) [SR9011]			82.4 fold			
O=C(O)c1ccc2c3c1cccc3c(=O)n1c3ccccc3nc21 [STO609]	1.0 fold	1.4 fold	0.000816 fold			
Cc1[nH]c(/C=C2\C(=O)Nc3ccc(S(=O)(=O)N(C)c4cccc(Cl)c4)cc32)c(C)c1C(=O)N1CCN(C)CC1 [SU11274]	1.0 fold	11.9 fold	0.000745 fold			
Cn1cnc2c(F)c(Nc3ccc(Br)cc3Cl)c(C(=O)NOCCO)cc21 [Selumetinib (AZD6244)]	1.5 fold	6.5 fold	1.0 fold			
CCN(CC)CCNC(=O)c1c(C)[nH]c(/C=C2\C(=O)Nc3ccc(F)cc32)c1C [Sunitinib]	1.0 fold					
Nc1nc(N)c2nc(-c3cccc(O)c3)c(-c3cccc(O)c3)nc2n1 [TG100-115]	1.0 fold	1.8 fold	1.0 fold			
Cc1nc(-c2cn3c(n2)-c2ccc(-c4cnn(C(C)(C)C(N)=O)c4)cc2OCC3)n(C(C)C)n1 [Taselisib (GDC-0032)]	2.8 fold					
COc1cc2nccc(Oc3ccc(NC(=O)Nc4cc(C)on4)c(Cl)c3)c2cc1OC [Tivozanib (AV-951)]	1.0 fold	15.6 fold	89.9 fold			
Cc1cc(Nc2cc(N3CCN(C)CC3)nc(Sc3ccc(NC(=O)C4CC4)cc3)n2)n[nH]1 [Tozasertib (VX-680)]	1.0 fold	7.5 fold	0.9 fold			
CC(=O)Nc1cccc(-n2c(=O)n(C3CC3)c(=O)c3c(Nc4ccc(I)cc4F)n(C)c(=O)c(C)c32)c1 [Trametinib (GSK1120212)]	398.5 fold	1.4 fold	183.2 fold			
CCCCNc1ncc2c(-c3ccc(CN4CCN(C)CC4)cc3)cn(C3CCC(O)CC3)c2n1 (stereo not shown) [UNC 2025A]	1.0 fold					
O=c1ncn2nc(Sc3ccc(F)cc3F)ccc2c1-c1c(Cl)cccc1Cl [VX-745]	1.0 fold	2.9 fold	0.0543 fold			
COc1cc2/c(=N/c3ccc(Br)cc3F)nc[nH]c2cc1OCC1CCN(C)CC1 [Vandetanib (ZD6474)]	1.0 fold	0.5 fold				
CCS(=O)(=O)O.COC(=O)c1ccc2c(c1)NC(=O)/C2=C(\Nc1ccc(N(C)C(=O)CN2CCN(C)CC2)cc1)c1ccccc1 [Vargetef]	1.0 fold	0.229 fold	0.14 fold			
Clc1ccc(Nc2nnc(Cc3ccncc3)c3ccccc23)cc1 [Vatalanib (PTK787)]	1.0 fold	0.245 fold	0.7 fold			
CC(C)C[C@H](NC(=O)[C@H](Cc1ccccc1)NC(=O)c1cnccn1)B(O)O [Velcade]						EC50 decrease, fold (Screen N 1) [1]: 0.457 fold; EC50 decrease, fold (Screen N 2) [1]: 0.468 fold; EC50 decrease, fold (Screen N 3) [1]: 0.0645 fold
CCCS(=O)(=O)Nc1ccc(F)c(C(=O)c2c[nH]c3ncc(-c4ccc(Cl)cc4)cc23)c1F [Vemurafenib (PLX-4032)]	1.0 fold	1.0 fold				
CS(=O)(=O)c1ccc(C(=O)Nc2ccc(Cl)c(-c3ccccn3)c2)c(Cl)c1 [Vismodegib (GDC-0449)]	1.0 fold	1.0 fold	1.0 fold			
CC[C@@H]1C(=O)N(C)c2cnc(Nc3ccc(C(=O)N[C@H]4CC[C@H](N5CCN(CC6CC6)CC5)CC4)cc3OC)nc2N1C(C)C [Volasertib (BI-6727)]	0.4 fold	0.2 fold	68.5 fold			
Oc1nc(-c2ccc(C(F)(F)F)cc2)nc2c1CSCC2 [XAV-939]	1.0 fold	6.5 fold	1.0 fold			

Molecule	EC50 decrease, fold (Screen N 2) [1, 4]	EC50 decrease, fold (Screen N 1) [1, 5]	EC50 decrease, fold (Screen N 3) [1, 6]	EC50 [2]	EC50 [3]	other results
COCCn1c2c([n+](Cc3cnccn3)c1C)C(=O)c1ccccc1C2=O [YM-155]	4.4 fold	10.9 fold	1.0 fold			
CNC1=C(Cl)C(=O)c2ccccc2C1=O [compound 2]				41.1 µM	38.6 µM	
CCCNC1=C(Cl)C(=O)c2ccccc2C1=O [compound 4]				90 µM	90 µM	reduction of anti-cancer activity ([3]; versus compound 3): more than 3 fold
CCCCNC1=C(Cl)C(=O)c2ccccc2C1=O [compound 5]				> 90 µM	> 90 µM	
CCCCCNC1=C(Cl)C(=O)c2ccccc2C1=O [compound 6]				> 90 µM	> 90 µM	
CCCCCCNC1=C(Cl)C(=O)c2ccccc2C1=O [compound 7]				> 90 µM	26.1 µM	
CCCCCCCCNC1=C(Cl)C(=O)c2ccccc2C1=O [compound 9]				> 90 µM	> 90 µM	
CC(C)NC1=C(Cl)C(=O)c2ccccc2C1=O [compound 10]				> 90 µM	69 µM	
CCC(C)NC1=C(Cl)C(=O)c2ccccc2C1=O (stereo not shown) [compound 11]				> 90 µM	> 90 µM	
CC(C)CNC1=C(Cl)C(=O)c2ccccc2C1=O [compound 12]				> 90 µM	> 90 µM	
CCOCCNC1=C(Cl)C(=O)c2ccccc2C1=O [compound 24]				67.8 µM	55.4 µM	
CC(C)OCCCNC1=C(Cl)C(=O)c2ccccc2C1=O [compound 25]				60.8 µM	82.1 µM	
CC(=O)NC1=C(Cl)C(=O)c2ccccc2C1=O [compound 29]				9.7 µM	5.4 µM	
CCC(=O)NC1=C(Cl)C(=O)c2ccccc2C1=O [compound 30]				3.6 µM	5.7 µM	
O=C(CCl)NC1=C(Cl)C(=O)c2ccccc2C1=O [compound 33]				25.4 µM	7.9 µM	decrease in anti-cancer activity ([3]; versus compound 29): 2 fold
O=C(O)CNC1=C(Cl)C(=O)c2ccccc2C1=O [compound 34]				11.8 µM	18.1 µM	
O=C1C(Cl)=C(NNC(=O)C(F)(F)F)C(=O)c2ccccc21 [compound 35]				11.5 µM	8 µM	
O=C1C(Cl)=C(Nc2ccccn2)C(=O)c2ccccc21 [compound 37]				6 µM	5.2 µM	
Cc1ccc(NC2=C(Cl)C(=O)c3ccccc3C2=O)cc1 [compound 41]				8.4 µM	2.5 µM	
O=C1C(Cl)=C(Nc2ccc(F)cc2)C(=O)c2ccccc21 [compound 42]				10 µM	3.2 µM	
O=C1C(Cl)=C(Nc2ccc(Cl)cc2)C(=O)c2ccccc21 [compound 43]				> 90 µM	> 90 µM	
O=C1C(Cl)=C(Nc2cccc(Cl)c2)C(=O)c2ccccc21 [compound 44]				5.3 µM	7 µM	
O=C1C(Cl)=C(Nc2ccc(O)cc2)C(=O)c2ccccc21 [compound 45]				2.6 µM	2.5 µM	
[N-]=[N+]=NC1=C(Cl)C(=O)c2ccccc2C1=O [compound 46]				2.9 µM	5.2 µM	
CC1CCCC(C)N1C1=C(Cl)C(=O)c2ccccc2C1=O (stereo not shown) [compound 47]				9 µM	7 µM	
JAK Inhibitor I	1.0 fold	0.847 fold	46.2 fold			
NF-kB Activation Inhibitor	1.0 fold	11.2 fold	0.0602 fold			
